Where two headings read alike, the source gives them in different places.
Legend:
ER β [1] = molecular target: T1, ER β (Homo sapiens, UniProt Q92731); assay: Affinity ultrafiltration LC-MS screening (AUF-LC-MS) of Arnebiae Radix extract against ER β; conditions: specific binding = Aa/Ab (relative peak area active group / denatured group), extract 5.0 mg/ml, ER β 200 µg/ml, 37°C 60 min, <1.5 = non-ligand
T1 construct: purchased Shanghai Tongwei Biotechnology Co., Ltd. (China)
Description: (§1) The above extract was dissolved in DMSO, and the solution was diluted with buffer (pH = 8.0) to a final concentration of 5.0 mg/ml. The sample solution and buffer were successively added to EP tubes. Then buffer, inactivated ER α solution (200 µg/ml, boiled in the water bath for 20 min), and ER α solution (200 µg/ml) were separately added as the blank control group, the denatured control group, and the sample group, respectively. The blank control group and denatured control group were set to exclude some interference factors about background, false positives, and non-specific binding. The group of mixtures was subsequently incubated in the dark at 37°C for 60 min to make a combination balance. Next, each mixture (200 μl) was transferred into an ultrafiltration tube and ultrafiltered at 12,000 rpm for 15 min at 4°C. Then, each group was washed three times with 300 μl of buffer to remove unbound small molecules. Finally, the ligands bound to ER α were dissociated from the complexes by incubating with 300 μl of methanol/water (90/10) for 10 min and then centrifuging at 12,000 rpm for 15 min at room temperature, three times. These ultrafiltrates for each group were dried under nitrogen gas at room temperature and reconstituted in 80 μl of methanol/water (50/50) prior to UHPLC-Q-Exactive Orbitrap MS analysis. All the screening assays were carried out in triplicate. Except for the replacement of the ER, the affinity ultrafiltration screening method of ER β is similar to that of ER α in the other steps.
(§2) The analyses are exercised on Q-Exactive Focus Orbitrap MS connected to Thermo Scientific Dionex Ultimate 3000 RS through an ESI source. For the chromatographic separation, a Thermo Scientific Hypersil GOLD™ aQ (100 mm × 2.1 mm, 1.9 μm) was applied at the flow rate of 0.3 ml/min. The 0.1% formic acid and acetonitrile were used as the mobile phases A and B, respectively. The optimized UHPLC elution procedures were conducted as follows: 0–2 min, 95%–90% A; 2–5 min, 90%–80% A; 5–10 min, 80%–75% A; 10–15 min, 75%–50% A; 15–25 min, 50%–45% A; 25–40 min, 45%–20% A; 40–45 min, 20%–5% A; 45–45.1 min, 5%–95% A; 45–50 min, 95% A. The column temperature was maintained at 35°C. For the MS/MS analysis, the mass spectrometer equipped with an electrospray ionization source was obtained with a resolution of 70,000 detected by the Orbitrap analyzer. In order to comprehensively explore compounds, the positive and negative ion modes were both selected. The mass spectrometry conditions are as follows: electrospray ion source, the spray voltage was 3.5 kV for positive ion mode and 3.2 kV for negative ion mode, sheath gas pressure was 35 arb, auxiliary gas pressure was 10 arb, and the temperature of capillary and auxiliary gas heater was 320°C and 350°C, respectively; and the S-lens RF level was 60. Full-scan data were acquired from m/z 100–1,200 by data-dependent MS^2 scanning or parallel reaction monitoring (PRM) mode. The nitrogen gas served as collision gas, and the energy was set as normalized collision energy 30%. Instrument and data were controlled by the Xcalibur software version 4.2.
Therefore, affinity ultrafiltration can rapidly screen and identify bioactive compounds in complex plant extracts by comparing the changes in peak areas before and after ultrafiltration. […] According to literature reports ([Munigunti et al., 2011]), compounds whose specific binding values were less than 1.5 were considered as non-ligands.

ER β [2] = molecular target: T1, ER β; assay: SPR binding measurements (Biacore T200) on immobilized ER β; conditions: for kon: read-out: Ka (association rate constant); for koff: read-out: Kd (dissociation rate constant)
Description: SPR binding measurements were performed using a Biacore T200 biosensor system (Cytiva, USA). All the SPR-based materials were acquired from Cytiva.
ER β was dissolved in PBS at 1.0 mg/ml and was then diluted in 20 μg/ml sodium acetate buffer at pH 5.0 and immobilized on a CM5 chip using an amine coupling kit. Sulfo-NHS (0.1 mol/l) and EDC (0.4 mol/l) with a 1:1 volume ratio were mixed at 25°C and flowed through a chip channel at 10 μl/min. ERβ was flowed through the chip channel at the same flow rate and reacted with the activated carboxyl groups on the chip for 600 s. Ethanolamine hydrochloride flowed through the chip channel at the same flow rate for 360 s.
Sensor preparation and interaction analyses were performed at 25°C in the PBS running buffer. Each analyte was dissolved in DMSO at 1 mg/ml and then dissolved in the running buffer at 0.20, 0.39, 0.78, 1.56, 3.13, 6.25, 12.5, and 25 μg/ml for SPR measurements.
The running buffer was used as the blank control. Eight groups of gradient concentrations of the same analyte (and the blank control) were flowed through the immobilized channel at a flow rate of 30 μl/min, with an association time of 180s and a dissociation time of 300 s. The collected signals were monitored in real time, and a reference flow cell without immobilized ER β served as a non-specific binding control. The rate constants of association and dissociation were calculated by the non-linear fitting method including the simultaneous fitting for the association and dissociation phases in each sensorgram in Biacore Evaluation Software version 3.2.1 (Cytiva, USA).

ER α = molecular target: T2, ER α (Homo sapiens, UniProt P03372); assay: Affinity ultrafiltration LC-MS screening (AUF-LC-MS) of Arnebiae Radix extract against ER α; conditions: specific binding = Aa/Ab (relative peak area active group / denatured group), extract 5.0 mg/ml, ER α 200 µg/ml, 37°C 60 min, <1.5 = non-ligand
T2 construct: purchased Shanghai Tongwei Biotechnology Co., Ltd. (China)
T2 sequence (P03372 1-595): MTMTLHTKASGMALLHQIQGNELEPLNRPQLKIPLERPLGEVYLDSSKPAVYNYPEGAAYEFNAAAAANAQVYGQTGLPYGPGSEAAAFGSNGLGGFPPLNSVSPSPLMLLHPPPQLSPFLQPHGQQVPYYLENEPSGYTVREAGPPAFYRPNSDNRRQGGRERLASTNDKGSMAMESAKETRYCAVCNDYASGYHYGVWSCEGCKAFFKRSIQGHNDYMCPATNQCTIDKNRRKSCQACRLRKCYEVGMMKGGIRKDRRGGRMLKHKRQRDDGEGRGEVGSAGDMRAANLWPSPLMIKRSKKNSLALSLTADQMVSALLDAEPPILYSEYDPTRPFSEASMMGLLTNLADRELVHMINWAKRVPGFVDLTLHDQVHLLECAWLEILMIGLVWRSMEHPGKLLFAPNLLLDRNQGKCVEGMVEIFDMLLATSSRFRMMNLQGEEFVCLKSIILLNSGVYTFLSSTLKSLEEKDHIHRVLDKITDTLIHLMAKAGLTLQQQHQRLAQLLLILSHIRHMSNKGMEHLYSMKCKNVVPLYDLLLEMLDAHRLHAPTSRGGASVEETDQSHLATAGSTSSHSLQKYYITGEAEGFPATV
Description: as §1
as §2, with “For the chromatographic separation, a Thermo Scientific Hypersil GOLD™ aQ (100 mm × 2.1 mm, 1.9 μm) was applied at the flow rate of 0.3 ml/min.” left out, “The optimized UHPLC elution procedures were conducted as follows: 0–2 min, 95%–90% A; 2–5 min, 90%–80% A; 5–10 min, 80%–75% A; 10–15 min, 75%–50% A; 15–25 min, 50%–45% A; 25–40 min, 45%–20% A; 40–45 min, 20%–5% A; 45–45.1 min, 5%–95% A; 45–50 min, 95% A. The column temperature was maintained at 35°C.” left out
Therefore, affinity ultrafiltration can rapidly screen and identify bioactive compounds in complex plant extracts by comparing the changes in peak areas before and after ultrafiltration.

thrombin = molecular target: thrombin; parameters: method as in Wang et al., 2017; conditions: SPR, direct interaction with thrombin; ref Wang et al., 2017; cited from earlier work
[3] = SPR, ER β on CM5 chip, 25°C, PBS running buffer, read-out: KD
[4] = SPR, ER β on CM5 chip, 25°C, PBS running buffer

T1 sequence (Q92731 whole entry): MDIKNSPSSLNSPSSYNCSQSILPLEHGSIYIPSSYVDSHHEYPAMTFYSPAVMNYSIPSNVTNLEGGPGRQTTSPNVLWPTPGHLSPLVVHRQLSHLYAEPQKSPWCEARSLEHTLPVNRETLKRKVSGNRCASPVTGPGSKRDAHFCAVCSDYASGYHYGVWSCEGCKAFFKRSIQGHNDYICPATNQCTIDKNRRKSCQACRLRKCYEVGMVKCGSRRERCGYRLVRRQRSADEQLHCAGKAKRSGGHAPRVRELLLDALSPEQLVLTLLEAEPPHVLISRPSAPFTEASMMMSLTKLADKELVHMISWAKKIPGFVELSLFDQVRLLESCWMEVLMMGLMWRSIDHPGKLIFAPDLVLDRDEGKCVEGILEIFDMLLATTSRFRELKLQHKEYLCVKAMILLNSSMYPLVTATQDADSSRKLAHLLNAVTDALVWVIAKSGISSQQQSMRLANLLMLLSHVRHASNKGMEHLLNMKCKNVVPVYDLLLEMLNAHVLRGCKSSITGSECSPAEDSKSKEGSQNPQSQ

Compound: O=C(/C=C/c1ccc(O)c(O)c1)O[C@H](Cc1ccc(O)c(O)c1)C(=O)O [Rosmarinic acid]
- Specific binding (ER β [1]): 2.66
- Rmax (ER β [2]; SPR, ER β on CM5 chip, 25°C): 4.41 RU
- Kd (ER β [2]; [3]): 1.32 µM
- kon (ER β [2]; [4]): 2020 M⁻¹ s⁻¹
- koff (ER β [2]; [4]): 0.00266 s⁻¹

Compound: CCCC[C@H](N)C(=O)O [Norleucine]
- Specific binding (ER β [1]): 2.29

Compound: O=C(O)CC(O)(CC(=O)O)C(=O)O [Citric acid]
- Specific binding (ER α): 5.02
- Specific binding (ER β [1]): 1.78

Compound: O=C(O)CCCCC(=O)O [Adipic acid]
- Specific binding (ER α): 5.77

Compound: O=C(/C=C/c1ccc(O)c2oc(-c3ccc(O)c(O)c3)cc12)O[C@H](Cc1ccc(O)c(O)c1)C(=O)O [Salvianolic acid C]
- Specific binding (ER β [1]): 1.75
- Rmax (ER β [2]; SPR, ER β on CM5 chip, 25°C): 12.6 RU
- Kd (ER β [2]; [3]): 1.98 µM
- kon (ER β [2]; [4]): 1390 M⁻¹ s⁻¹
- koff (ER β [2]; [4]): 0.00276 s⁻¹

Compound: O=c1c(O[C@@H]2O[C@H](CO)[C@@H](O)[C@H](O)[C@H]2O)c(-c2ccc(O)c(O)c2)oc2cc(O)cc(O)c12 [Isoquercitrin]
- Specific binding (ER β [1]): 1.91
- Rmax (ER β [2]; SPR, ER β on CM5 chip, 25°C): 9.57 RU
- Kd (ER β [2]; [3]): 1.04 µM
- kon (ER β [2]; [4]): 3020 M⁻¹ s⁻¹
- koff (ER β [2]; [4]): 0.00314 s⁻¹

Compound: O=C(O)CC(O)C(=O)O (stereo not shown) [Malic acid]
- Specific binding (ER β [1]): 2.20

Compound: N[C@@H](Cc1ccccc1)C(=O)O [Phenylalanine]
- Specific binding (ER α): 6.36
- Specific binding (ER β [1]): 2.39

Compound: O=c1c(O)c(-c2ccc(O)c(O)c2)oc2cc(O)cc(O)c12 [Quercetin]
- Specific binding (ER β [1]): 1.54
- Rmax (ER β [2]; SPR, ER β on CM5 chip, 25°C): 13.28 RU
- Kd (ER β [2]; [3]): 1.26 µM
- kon (ER β [2]): 2950 M⁻¹ s⁻¹
- koff (ER β [2]): 0.00372 s⁻¹

Compound: CC(C)=CCCC1=CC(=O)c2c(O)ccc(O)c2C1=O [Deoxyshikonin]
- Specific binding (ER α): 2.28

Compound: O=C(/C=C/c1ccc(O)c2c1[C@H](C(=O)O[C@H](Cc1ccc(O)c(O)c1)C(=O)O)[C@@H](c1ccc(O)c(O)c1)O2)O[C@H](Cc1ccc(O)c(O)c1)C(=O)O [Salvianolic acid B]
- Specific binding (ER β [1]): 2.24
- Kd (ER β [2]): 2.32 µM
- Rmax (ER β [2]; SPR, ER β on CM5 chip, 25°C): 3.51 RU
- kon (ER β [2]; [4]): 788 M⁻¹ s⁻¹
- koff (ER β [2]; [4]): 0.00183 s⁻¹

Compound: COc1ccc2cc3[n+](cc2c1OC)CCc1cc2c(cc1-3)OCO2 [berberine]
- Kd (thrombin): 16.4 µM

Compound: COc1ccc(C2COc3cc(O)ccc3C2)c(OC)c1 (stereo not shown) [Sativan]
- Specific binding (ER α): 2.15

Compound: C[C@@H]1O[C@@H](OC[C@H]2O[C@@H](Oc3c(-c4ccc(O)c(O)c4)oc4cc(O)cc(O)c4c3=O)[C@H](O)[C@@H](O)[C@@H]2O)[C@H](O)[C@H](O)[C@H]1O [Rutin]
- Rmax (ER β [2]; SPR, ER β on CM5 chip, 25°C): 7.78 RU
- Kd (ER β [2]; [3]): 0.934 µM

— publication PMC9676231, “Screening and characterization estrogen receptor ligands from Arnebia euchroma (Royle) Johnst. via affinity ultrafiltration LC-MS and molecular docking” (Frontiers in Plant Science, 2022)
